Experiments:
PDK1 PH domain = biological target: T1, PDK1 PH domain (Homo sapiens, UniProt O15530); test: FP assay, PIP3 binding to PDK1 PH domain; details: 15 nM TMR-PIP3, 100 nM PDK1 PH domain, 0-200 μM
T1 construct: 100 nM 441-551 a.a. region of human PDK1; made in house; host or cells: E. coli BL21(DE3)
Protocol: FIG. 4 is a graph depicting concentration-dependent competitive inhibition of PIP3-PH domain interaction by PIT-1 and PIT-2. 15 nM TMR-conjugated PIP3 were incubated with 100 nM PDK1 PH domain in the presence or absence of the indicated concentrations of PITs (0-200 μM) for 30 min, followed by FP measurement.
(§1) In order to identify compounds that disrupt the interaction between PIP3 and PH domains, a high-throughput fluorescence polarization (FP)-binding assay was developed using recombinant 1-123 amino acid N-terminal fragment of human Akt1 (also referred to herein simply as Akt), encompassing the PH domain (PH123 protein), and fluorescent NBD-labeled PIP3 molecule. The amino acid sequence of human Akt1 is publicly available as, for example, GenBank Accession No. NP_001014432.1 (SEQ ID NO:1), and the corresponding DNA sequence is publicly available as, for example, GenBank Accession No. NM_001014432. Briefly, 5 μM recombinant GST fusion proteins containing 1-123 a.a. N-terminal fragment of human Akt1 (PH 123) or 100 nM 441-551 a.a. region of human PDK1 were incubated with 15 nM TMR-labeled PIP3, PIP2, or PIP5 in buffer containing 50 mM Tris-HCl (pH 7.5), 150 mM NaCl, and 5 mM b-ME for 15 min at room temperature in the dark. FP values were determined using Wallac Victor 3 plate reader. […]

PLC-δ PH domain = biological target: T2, PLC-δ PH domain (Homo sapiens, UniProt P51178); test: FP assay, PIP2 binding to PLC-δ PH domain; details: 15 nM TMR-PIP2, 100 nM PLC-δ PH domain, 0-200 μM
T2 construct: 100 nM PLC-δ PH domain
T2 sequence (P51178 21-130 limits assumed): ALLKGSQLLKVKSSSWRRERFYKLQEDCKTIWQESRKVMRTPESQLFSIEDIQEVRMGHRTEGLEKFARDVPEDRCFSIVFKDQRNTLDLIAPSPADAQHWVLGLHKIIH
Protocol: FIG. 5 is a graph depicting specificity and concentration-dependent competitive inhibition of PIP3-PH domain interaction by PIT-1 and PIT-2. 15 nM TMR-conjugated PIP2 were incubated with 100 nM PLC-δ PH domain in the presence or absence of the indicated concentrations of PITs (0-200 μM) for 30 min, followed by FP measurement.
as §1

Btk PH domain = biological target: T3, Btk PH domain (Homo sapiens, UniProt Q06187); test: PH domain translocation assay, GFP-fused Btk PH domain; format: cell-based; details: 100 μM, 2 hr, PDGF stimulation
T3 construct: Btk PH domain-GFP vector was purchased from Signagen Laboratories
T3 sequence (Q06187 3-133 limits assumed): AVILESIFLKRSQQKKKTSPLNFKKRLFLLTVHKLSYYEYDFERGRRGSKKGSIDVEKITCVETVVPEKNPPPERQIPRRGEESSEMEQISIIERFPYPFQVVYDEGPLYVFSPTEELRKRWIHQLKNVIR
Protocol: Cells were transfected with the corresponding GFP-fusion vectors, serum starved overnight, and incubated with 100 μM PITs or PIT-1is for 2 hr, followed by stimulation with 100 ng/ml PDGF or 250 ng/ml PMA for 5 min. The translocation was analyzed using fluorescent microscope and was quantitated by counting the number of cells with translocated PH domains in five random fields.
To begin characterizing cellular activity of PITs, a PH domain translocation assay was performed, measuring PIP3-induced association of GFP-fused PH domains with the plasma membrane. This method provides useful means for monitoring status of the PH domain/PIP3 binding in the intact cells. Varnai P et al. (1999) J Biol Chem 274:10983-9. Several PH-domain-containing proteins, which are known to bind PIP3 specifically and efficiently, were examined. […] Oikawa T et al. (2004) Nat Cell Biol 6:420-6.

U87MG cells = test: U87MG cell viability, ATP assay; format: cell-based, human; details: for viability of U87MG cells: 12.5-100 μM, 48 hr, ATP assay
Protocol: U87MG cells were incubated with PITs (12.5-100 μM) for 48 hr. Cell viability was determined using ATP assay.
Based on the critical role of PIP3-dependent Akt signaling in the regulation of cell survival, the effect of PIT-1 on the cancer cell viability was tested. Cancer cells were seeded into 96-well plates (white plates for ATP assay; black plates for fluorescent assay; clear plates for MTS assay) at the density of 5-10×10^3 cells per well in 100 μl of the appropriate media. Compounds were added at a series of concentrations and incubated for different times. For the ATP assay, a luminescence-based commercial kit (CellTiter-Glo, Promega, Madison, Wis.) was used. Thirty microliters of cell lysis/ATP detection reagent was added to each well, mixed for 10 min at room temperature, and the luminescence was measured using a Wallac Victor 3 plate reader (Perkin-Elmer, Wellesley, Mass.). For the MTS assay, a CellTiter 96 AQueous Non-Radioactive Cell Proliferation Assay Kit (Promega, Madison, Wis., USA) was used. Twenty microliters of the combined MTS/PMS solution was added into each well, incubated for 4 hr at 37° C., and the absorbance at 490 nm was measured using a Wallac Victor 3 plate reader. For the Sytox cell death assay, measuring loss of plasma membrane integrity, cells were incubated with 1 μM Sytox Green reagent (Molecular Probes, Eugene, Oreg.) for 30 min at 37° C. and the fluorescence intensity was measured using Wallac Victor 3 plate reader with excitation at 485 nm and emission at 545 nm. Next, 5 μl of 20% (v/v) Triton X-100 solution was added to each well and incubated for 1 hr at 37° C., and the signal was measured again. The ratio of values (percentage of dead cells in each well) before and after Triton X-100 treatment was calculated and normalized to the relevant controls not subjected to the cytotoxic stimuli. IC50 values were determined using Origin6 software (MicroCal, LLC, Northampton, Mass.).

cells = test: subG1 DNA content; format: cell-based; details: P<0.01
Excerpt: Since PI3K/PIP3/Akt signaling plays a critical role in the inhibition of apoptosis (Datta S R et al. (1999) Genes Dev 13:2905-27), the possibility that PITs induce apoptosis was examined. […] Proapoptotic Bcl-2 family members Bax and Bak are important mediators of apoptosis. Wei M C et al. (2001) Science 292:727-30. […] Non-apoptotic mechanisms of cell death may also play some additional, albeit less important, role in PIT-induced killing, as some cell death was still observed in Bax/Bak-deficient cells and in the presence of zVAD.fmk.

T1 sequence (O15530 441-551): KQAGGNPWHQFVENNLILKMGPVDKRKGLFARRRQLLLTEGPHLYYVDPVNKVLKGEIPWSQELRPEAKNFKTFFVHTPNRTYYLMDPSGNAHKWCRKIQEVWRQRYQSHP

SMILES	inhibition of binding of PIP3 to the PH domain of PDK1 (PDK1 PH domain)	inhibition of interaction between PIP2 and PH domain of PLC-δ (PLC-δ PH domain)	inhibition of translocation of Btk PH domain to the plasma membrane (Btk PH domain)	viability of U87MG cells (U87MG cells)	subG1 DNA content in cells (cells)	killing of U87MG cells compared with LY294002 (U87MG cells)
O=C1NC(=S)S/C1=C\c1cc(O)c([N+](=O)[O-])cc1Cc1ccccc1 [PIT-2]	inhibited binding	failed to inhibit	significantly inhibited	reduce viability	significant increase	–
O=C(NC(=S)Nc1cc([N+](=O)[O-])cc(Cl)c1O)c1ccccc1 [PIT-1]	inhibited binding	failed to inhibit	significantly inhibited	reduce viability	significant increase	more pronounced than that by the PI3K inhibitor LY294002
